Counter-ions that a name gives are not always drawn.

For one assay, the system named is A549 human lung epithelium cell line. Put plainly: RANTES production in response to TNF-α from A549 cells. In kind it is cell-based. The conditions noted are these: A549 cells, 100 ng/ml TNF-α, read-out: Cellular activity grade (A549) (Cellular IC50). The method, boiled down: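 RANTES released into supernatant was measured by DELFIA-type sandwich immunoassay, Eu-labelled detection antibody, 340 nm excitation/615 nm emission, recombinant RANTES standard. Beforehand, cells seeded at 4×10^4/well received test compound (1% DMSO) for 1 h at 37 °C, followed by 24 h TNF-α (100 ng/ml) stimulation.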
By IC50 is commonly meant the concentration that gives 50% inhibition. With `N#Cc1c(C2CCCNC2)cc(-c2c(O)cccc2OCC2CCCO2)nc1N` (centres unmarked) [Example 2-81], the IC50 was < 1000 nM.

Staying with this assay, now noted: Homo sapiens, A549, A549 cells, 100 ng/ml TNF-α, read-out: Cellular activity grade (A549) (Cellular IC50).
Take `N#Cc1c(C2CCCNC2)cc(-c2c(O)cccc2OCc2cccc(Br)c2)nc1N` (centres unmarked) [Example 2-11]: the IC50 lay within 1000 to 10000 nM. Same read-out and setting: the result for `N#Cc1c(CCN)cc(-c2ccccc2O)nc1N` [Example 1-37] reads < 1000 nM; that for `CCc1cc(-c2ccccc2O)nc(N)c1C#N` [Example 1-39], > 10000 nM. The same measure, in the same setting: next, `N#Cc1c([C@@H](N)CCc2ccccc2)cc(-c2ccccc2O)nc1N` [Example 1-29]: > 10000 nM; `N#Cc1c(C2CCCNC2)cc(-c2c(O)cccc2OCc2cccc(Cl)c2)nc1N` (centres unmarked) [Example 2-18]: 1000 to 10000 nM; `CCCCCCOc1cccc(O)c1-c1cc(C2CCNCC2)c(C#N)c(N)n1` [Example 2-76]: < 1000 nM. Still for that read-out and setting: next, `N#Cc1c(C2CCCNC2)cc(-c2cccc(F)c2O)nc1N` (centres unmarked) [Example 1-19]: < 1000 nM; `Cc1ccc(COc2cccc(O)c2-c2cc(C3CCCNC3)c(C#N)c(N)n2)cc1` (centres unmarked) [Example 2-08]: < 1000 nM. Turning to `N#Cc1c([C@H](Cc2ccccc2)NC(=O)CCN2CCCCC2)cc(-c2ccccc2O)nc1N` [Example 1-40], the IC50 lay within 1000 to 10000 nM. As to `N#Cc1c(CCO)cc(-c2ccccc2O)nc1N` [Example 1-44], the concentration for half-maximal inhibition (IC50) was in the range of 1000 to 10000 nM. The same measure, in the same setting: next, `N#Cc1c(C2CCCNC2)cc(-c2c(O)cccc2OCCN2CCCC2)nc1N` (centres unmarked) [Example 2-87]: 1000 to 10000 nM; `N#Cc1c(C2CCCNC2)cc(-c2c(O)cccc2OCCN2CCOCC2)nc1N` (centres unmarked) [Example 2-84]: 1000 to 10000 nM. For the compound `N#Cc1c(C2CCCNC2)cc(-c2c(O)cccc2OCc2ccccc2Cl)nc1N` (centres unmarked) [Example 2-17], the IC50 lay in the range of 1000 to 10000 nM. The same measure, in the same setting: the result for `N#Cc1c(C2CCCNC2)cc(-c2c(O)cccc2OCCN2CCCCC2)nc1N` (centres unmarked) [Example 2-83] reads 1000 to 10000 nM. Regarding `N#Cc1c(C2CCC(C(=O)O)CC2)cc(-c2ccccc2O)nc1N` (centres unmarked) [Example 1-38], the IC50 lay in the range of 1000 to 10000 nM. As to `CCCCCCCOc1cccc(O)c1-c1cc(C2CCCNC2)c(C#N)c(N)n1` (centres unmarked) [Example 2-64], the IC50 lay within 1000 to 10000 nM. With `NC(=O)C1Cc2c(C3CCNCC3)cc(-c3c(O)cccc3OCC3CC3)nc2NC1=O` (centres unmarked) [Example 26-2, 7-[2-(cyclopropylmethoxy)-6-hydroxyphenyl]-2-oxo-5-(4-piperidinyl)-1,2,3,4-tetrahydro-1,8-naphthyridine-3-carboxamide hydrochloride], the IC50 is < 1000 nM.

As to `N#Cc1c(C2CCCNC2)cc(-c2c(O)cccc2OCc2ccc([N+](=O)[O-])cc2)nc1N` (centres unmarked) [Example 2-14], the IC50 was < 1000 nM. On the same count and under the same terms, next, `N#Cc1ccc(COc2cccc(O)c2-c2cc(C3CCCNC3)c(C#N)c(N)n2)cc1` (centres unmarked) [Example 2-16]: < 1000 nM. Regarding `CS(=O)(=O)N1CCCC(c2cc(-c3ccccc3O)nc(N)c2C#N)C1` (centres unmarked) [Example 1-42], the IC50 fell in the range of 1000 to 10000 nM. Regarding `N#Cc1c(C2CCCNC2)cc(-c2c(O)cccc2OCC2CC2)nc1N` (centres unmarked) [Example 2-65], the IC50 is < 1000 nM. Take `CS(=O)(=O)N1Cc2c(C3CCCNC3)cc(-c3c(O)cccc3OCC3CC3)nc2NC1=O` (centres unmarked) [Example 24-4, 7-[2-(cyclopropylmethoxy)-6-hydroxyphenyl]-3-(methylsulfonyl)-5-(3-piperidinyl)-3,4-dihydropyrido[2,3-d]pyrimidin-2(1H)-one hydrochloride]: the IC50 was < 1000 nM. The same measure, in the same setting: next, `N#Cc1c(C2CCCNC2)cc(-c2c(O)cccc2OCc2c(Cl)cccc2Cl)nc1N` (centres unmarked) [Example 2-20]: 1000 to 10000 nM.

Consider `CC(C)[C@H](N)c1cc(-c2ccccc2O)nc(N)c1C#N` [Example 1-33], for which the IC50 is 1000 to 10000 nM.

In the case of `N#Cc1c([C@@H]2CCCN2)cc(-c2ccccc2O)nc1N` [Example 1-31], the IC50 was 1000 to 10000 nM. On the same count and under the same terms, the result for `CC(C)(C)C(=O)COc1cccc(O)c1-c1cc(C2CCNCC2)c(C#N)c(N)n1` [Example 2-78] reads < 1000 nM; that for `CCOC(=O)c1cc2c(C3CCCNC3)cc(-c3ccccc3O)nc2[nH]c1=O` (centres unmarked) [Example 25-1, ethyl 7-(2-hydroxyphenyl)-2-oxo-5-(3-piperidinyl)-1,2-dihydro-1,8-naphthyridine-3-carboxylate hydrochloride], 1000 to 10000 nM; that for `Cc1cccc(-c2cc(C3CCCNC3)c(C#N)c(N)n2)c1O` (centres unmarked) [Example 1-17], 1000 to 10000 nM.

Regarding `N#Cc1c(CC(N)c2ccccc2)cc(-c2ccccc2O)nc1N` (centres unmarked) [Example 1-35], the IC50 is 1000 to 10000 nM.

As for `Cc1cccc(O)c1-c1cc(C2CCCNC2)c(C#N)c(N)n1` (centres unmarked) [Example 1-21], the IC50 was in the range of 1000 to 10000 nM. On to `CCCC[C@H](N)c1cc(-c2ccccc2O)nc(N)c1C#N` [Example 1-28], for which the IC50 was > 10000 nM. Same read-out and setting: the result for `N#Cc1c(C2CCNCC2)cc(-c2c(O)cccc2OCCC2CCCCC2)nc1N` [Example 2-70] reads < 1000 nM. Take `CC(C)CCCOc1cccc(O)c1-c1cc(C2CCNCC2)c(C#N)c(N)n1` [Example 2-66]: the IC50 is < 1000 nM. Turning to `N#Cc1c(C2CCCNC2)cc(-c2c(O)cccc2OCCN2CCCCCC2)nc1N` (centres unmarked) [Example 2-86], the IC50 was 1000 to 10000 nM. Same read-out and setting: next, `CC(C)COc1cccc(O)c1-c1cc(C2CCNCC2)c(C#N)c(N)n1` [Example 2-71]: < 1000 nM; `N#Cc1c(C2CCCNC2)cc(-c2c(O)cccc2OCc2cccc([N+](=O)[O-])c2)nc1N` (centres unmarked) [Example 2-13]: 1000 to 10000 nM. For the compound `N#Cc1c([C@@H](N)Cc2ccccc2)cc(-c2ccccc2O)nc1N` [Example 1-25], the IC50 is 1000 to 10000 nM.

For `CCOc1cccc(O)c1-c1cc(C2CCNCC2)c(C#N)c(N)n1` [Example 2-75], the IC50 was < 1000 nM. On the same count and under the same terms, the result for `COc1ccc(C[C@H](N)c2cc(-c3ccccc3O)nc(N)c2C#N)cc1` [Example 1-26] reads 1000 to 10000 nM. The same measure, in the same setting: the result for `CCOC(=O)C1Cc2c(C3CCCNC3)cc(-c3ccccc3O)nc2NC1=O` (centres unmarked) [Example 26-1, ethyl 7-(2-hydroxyphenyl)-2-oxo-5-(3-piperidinyl)-1,2,3,4-tetrahydro-1,8-naphthyridine-3-carboxylate] reads < 1000 nM; that for `N#Cc1c(C2CCNCC2)cc(-c2c(O)cccc2OCC2CCCO2)nc1N` (centres unmarked) [Example 2-82], < 1000 nM.

Turning to `N#Cc1c([C@H](N)Cc2ccccc2)cc(-c2ccccc2O)nc1N` [Example 1-34], the IC50 lay in the range of 1000 to 10000 nM. `O=c1ccc2c(C3CCCNC3)cc(-c3c(O)cccc3OCC3CC3)nc2[nH]1` (centres unmarked) [Example 25-4, 7-[2-(cyclopropylmethoxy)-6-hydroxyphenyl]-5-(3-piperidinyl)-1,8-naphthyridin-2(1H)-one hydrochloride]: the IC50 was < 1000 nM. Still for that read-out and setting: next, `CCCOc1cccc(O)c1-c1cc(C2CCNCC2)c(C#N)c(N)n1` [Example 2-67]: < 1000 nM; `N#Cc1c(C2CCCNC2)cc(-c2c(O)cccc2OCc2cccc(C(F)(F)F)c2)nc1N` (centres unmarked) [Example 2-09]: 1000 to 10000 nM; `N#Cc1c(C2CCCNC2)cc(-c2c(O)cccc2OCc2ccc(Cl)cc2)nc1N` (centres unmarked) [Example 2-19]: < 1000 nM. The same measure, in the same setting: next, `N#Cc1cccc(COc2cccc(O)c2-c2cc(C3CCCNC3)c(C#N)c(N)n2)c1` (centres unmarked) [Example 2-15]: < 1000 nM; `CCCCCCCOc1cccc(O)c1-c1cc(C2CCNCC2)c(C#N)c(N)n1` [Example 2-73]: < 1000 nM.

Staying with this assay, now noted: Homo sapiens, A549 cells, 100 ng/ml TNF-α, read-out: Cellular activity grade (A549) (Cellular IC50).
On to `CC(N)Cc1cc(-c2ccccc2O)nc(N)c1C#N` (centres unmarked) [Example 1-36], for which the IC50 is 1000 to 10000 nM.

The values above are taken from patent US6984649B1, “Pyridine derivatives” (Bayer Aktiengesellschaft, priority 2000, dated 2006).
